Assay results reported in US20240033234A1, “THERAPEUTIC COMPOUNDS, FORMULATIONS, AND USE THEREOF” (Tvardi Therapeutics, Inc., priority 2022, published 2024).
Where “and” joins values, the source holds several entries; their conditions need not be identical. Equal entries are not always repeated.

Experiment: Accelerated and long term stability study of TTI-101 (Batch A, Batch B): HPLC assay, purity, impurities and water content after storage at 5° C., 25° C./60% RH, 30° C./65% RH or 40° C./75% RH
Assay type: physicochemical
Experimental: Exemplary HPLC conditions: diluent was 0.1% trifluoroacetic acid (TFA) in acetonitrile, Mobile Phase A was 0.05% TFA in water, and Mobile Phase B was 0.05% TFA in acetonitrile, column (Agilent, Eclipse XDB-C18, 3.0×100 mm, particle size 1.8 μm), flow (0.425 mL/min), and detector (280 nm diode array).
Batch A was prepared analogously using Method 3 as described in Example 1. Batch B was prepared according to Method 5 as described in Example 1.
Samples of TTI-101 were stored at 5° C., 25° C./60% RH, 30° C./65% RH, or 40° C./75% RH. TTI-101 was stored in an LDPE bag enclosed with a Nylon cable tie and then transferred to another LDPE bag and enclosed with a Nylon cable tie. The enclosure was put into an HDPE bottle and closed with a polyethylene-lined polypropylene cap. The samples were stored under the above-identified conditions.
The samples were analyzed using HPLC with the exemplary conditions identified above. Relative retention time (RRT) for Compound 5 was about 0.83, Compound 4 was about 1.05-1.06, Compound 6 was about 1.15-1.17, and compound of formula (IV) was about 0.99.
• NA not applicable • NQ ≥0.02% and <0.05% • Avg average • Cmpd compound • — no peak • M month • RRT relative retention time

[1] = Storage 25° C./60% RH, 6 M, Prep P1-P2
[2] = Storage 25° C./60% RH, 6 M, Prep P1-P2, listed as Batch B
[3] = Storage 25° C./60% RH, 9 M, Avg
[4] = Storage 25° C./60% RH, 9 M, Prep P1-P2
[5] = Storage 25° C./60% RH, 9 M, Prep P1-P2, listed as Batch B
[6] = Storage 40° C./75% RH, 0 M, Avg
[7] = Storage 40° C./75% RH, 0 M, Prep P1-P5
[8] = Storage 40° C./75% RH, 0 M, Prep P1-P5, listed as Batch B
[9] = Storage 40° C./75% RH, 1 M, Avg
[10] = Storage 40° C./75% RH, 1 M, Prep P1-P2
[11] = Storage 40° C./75% RH, 3 M, Avg
[12] = Storage 40° C./75% RH, 3 M, Prep P1-P2
[13] = Storage 40° C./75% RH, 3 M, Prep P1-P2, listed as Batch B
[14] = Storage 40° C./75% RH, 6 M, Avg
[15] = Storage 40° C./75% RH, 6 M, Prep P1-P2
[16] = Storage 40° C./75% RH, 6 M, Prep P1-P2, listed as Batch B

COc1ccc(S(=O)(=O)Nc2cc(-c3c(O)ccc4ccccc34)c(O)c3ccccc23)cc1 [TTI-101]
Impurity RRT 0.84 [1]: NQ (≥0.02% and <0.05%)
Impurity RRT 0.87 [1]: NQ (≥0.02% and <0.05%)
Impurity RRT 1.05 [1]: NQ (≥0.02% and <0.05%)
Impurity RRT 1.06 (Cmpd 4) [1]: NQ (≥0.02% and <0.05%)
Impurity RRT 1.39 [1]: NQ (≥0.02% and <0.05%)
Water Content [1]: <0.04%
Assay [2]: 99.0% and 98.5%
Impurity RRT 1.17 (Cmp 6) [2]: 0.23 area % and 0.25 area %
Purity [2]: 99.6% and 99.5%
Assay [3]: 99.0%
Impurities Total [3]: 0.4 area %
Impurity RRT 0.84 [3]: NQ (≥0.02% and <0.05%)
Impurity RRT 0.87 [3]: NQ (≥0.02% and <0.05%)
Impurity RRT 0.99 [3]: 0.12 area %
Impurity RRT 1.02 [3]: 0.06 area %
Impurity RRT 1.16 (Cmp 6) [3]: 0.18 area %
Impurity RRT 1.39 [3]: NQ (≥0.02% and <0.05%)
Purity [3]: 99.5%
Water Content [3]: 0.1%
Impurities Total [4]: 0.4 area %
Impurity RRT 0.84 [4]: NQ (≥0.02% and <0.05%)
Impurity RRT 0.87 [4]: NQ (≥0.02% and <0.05%)
Impurity RRT 1.02 [4]: 0.06 area %
Impurity RRT 1.16 (Cmp 6) [4]: 0.18 area %
Impurity RRT 1.39 [4]: NQ (≥0.02% and <0.05%)
Water Content [4]: 0.1%
Assay [5]: 99.7% and 98.2%
Impurity RRT 0.99 [5]: 0.12 area % and 0.13 area %
Purity [5]: 99.6% and 99.5%
Assay [6]: 99.4%
Impurities Total [6]: 0.1 area %
Impurity RRT 0.61 [6]: 0.05 area %
Impurity RRT 0.86 [6]: NQ (≥0.02% and <0.05%)
Impurity RRT 0.88 [6]: NQ (≥0.02% and <0.05%)
Impurity RRT 0.99 [6]: NQ (≥0.02% and <0.05%)
Impurity RRT 1.16 (Cmp 6) [6]: 0.07 area %
Purity [6]: 99.8%
Water Content [6]: 0.1%
Water Content (Storage 40° C./75% RH, 0 M, Prep P1-P2): 0.1%
Impurities Total [7]: 0.1 area %
Impurity RRT 0.86 [7]: NQ (≥0.02% and <0.05%)
Impurity RRT 0.99 [7]: NQ (≥0.02% and <0.05%)
Purity [7]: 99.8%
Assay [8]: 99.0% and 100.5% and 99.3% and 99.5% and 98.8%
Impurity RRT 1.16 (Cmp 6) [8]: 0.08 area % and 0.07 area %
Assay [9]: 99.2%
Impurities Total [9]: 0.6 area %
Impurity RRT 0.80 [9]: NQ (≥0.02% and <0.05%)
Impurity RRT 0.84 [9]: NQ (≥0.02% and <0.05%)
Impurity RRT 0.87 [9]: NQ (≥0.02% and <0.05%)
Impurity RRT 0.99 [9]: 0.14 area %
Impurity RRT 1.02 [9]: 0.06 area %
Impurity RRT 1.05 [9]: NQ (≥0.02% and <0.05%)
Impurity RRT 1.06 (Cmpd 4) [9]: NQ (≥0.02% and <0.05%)
Impurity RRT 1.17 (Cmp 6) [9]: 0.38 area %
Impurity RRT 1.39 [9]: 0.05 area %
Purity [9]: 99.3%
Water Content [9]: 0.1%
Impurities Total [10]: 0.6 area %
Impurity RRT 0.80 [10]: NQ (≥0.02% and <0.05%)
Impurity RRT 0.84 [10]: NQ (≥0.02% and <0.05%)
Impurity RRT 0.87 [10]: NQ (≥0.02% and <0.05%)
Impurity RRT 0.99 [10]: 0.14 area %
Impurity RRT 1.02 [10]: 0.06 area %
Impurity RRT 1.05 [10]: NQ (≥0.02% and <0.05%)
Impurity RRT 1.06 (Cmpd 4) [10]: NQ (≥0.02% and <0.05%)
Impurity RRT 1.17 (Cmp 6) [10]: 0.38 area %
Impurity RRT 1.39 [10]: 0.05 area %
Purity [10]: 99.3%
Water Content [10]: 0.1%
Assay (Storage 40° C./75% RH, 1 M, Prep P1-P2, listed as Batch B): 99.1% and 99.4%
Assay [11]: 98.7%
Impurities Total [11]: 1.0 area %
Impurity RRT 0.38 [11]: NQ (≥0.02% and <0.05%)
Impurity RRT 0.80 [11]: NQ (≥0.02% and <0.05%)
Impurity RRT 0.84 [11]: NQ (≥0.02% and <0.05%)
Impurity RRT 0.87 [11]: NQ (≥0.02% and <0.05%)
Impurity RRT 0.99 [11]: 0.24 area %
Impurity RRT 1.02 [11]: 0.19 area %
Impurity RRT 1.06 (Cmpd 4) [11]: NQ (≥0.02% and <0.05%)
Impurity RRT 1.17 (Cmp 6) [11]: 0.37 area %
Impurity RRT 1.39 [11]: 0.16 area %
Purity [11]: 98.9%
Water Content [11]: 0.04%
Impurity RRT 0.38 [12]: NQ (≥0.02% and <0.05%)
Impurity RRT 0.80 [12]: NQ (≥0.02% and <0.05%)
Impurity RRT 0.84 [12]: NQ (≥0.02% and <0.05%)
Impurity RRT 0.87 [12]: NQ (≥0.02% and <0.05%)
Impurity RRT 0.99 [12]: 0.24 area %
Impurity RRT 1.02 [12]: 0.19 area %
Impurity RRT 1.39 [12]: 0.16 area %
Purity [12]: 98.9%
Assay [13]: 98.5% and 99.0%
Impurities Total [13]: 1.0 area % and 0.9 area %
Impurity RRT 1.17 (Cmp 6) [13]: 0.39 area % and 0.35 area %
Water Content [13]: <0.04% and 0.04%
Assay [14]: 98.4%
Impurities Total [14]: 1.0 area %
Impurity RRT 0.39 [14]: NQ (≥0.02% and <0.05%)
Impurity RRT 0.80 [14]: NQ (≥0.02% and <0.05%)
Impurity RRT 0.84 [14]: NQ (≥0.02% and <0.05%)
Impurity RRT 0.87 [14]: NQ (≥0.02% and <0.05%)
Impurity RRT 0.99 [14]: NQ (≥0.02% and <0.05%)
Impurity RRT 1.02 [14]: 0.34 area %
Impurity RRT 1.06 (Cmpd 4) [14]: NQ (≥0.02% and <0.05%)
Impurity RRT 1.17 (Cmp 6) [14]: 0.30 area %
Impurity RRT 1.27 [14]: NQ (≥0.02% and <0.05%)
Impurity RRT 1.39 [14]: 0.34 area %
Purity [14]: 98.9%
Water Content [14]: <0.04%
Impurities Total [15]: 1.0 area %
Impurity RRT 0.39 [15]: NQ (≥0.02% and <0.05%)
Impurity RRT 0.80 [15]: NQ (≥0.02% and <0.05%)
Impurity RRT 0.84 [15]: NQ (≥0.02% and <0.05%)
Impurity RRT 0.87 [15]: NQ (≥0.02% and <0.05%)
Impurity RRT 0.99 [15]: NQ (≥0.02% and <0.05%)
Impurity RRT 1.02 [15]: 0.34 area %
Impurity RRT 1.06 (Cmpd 4) [15]: NQ (≥0.02% and <0.05%)
Impurity RRT 1.39 [15]: 0.34 area %
Water Content [15]: <0.04%
Assay [16]: 98.6% and 98.2%
Impurity RRT 1.17 (Cmp 6) [16]: 0.31 area % and 0.29 area %
Purity [16]: 98.8% and 98.9%
stability (over 24 months): excellent stability
